Data reported in patent US12662489B2 (Sitryx Therapeutics Limited, priority 2023, dated 2026).

What was measured:
[1] = target: T1, MTHFD1 recombinant human enzyme (Homo sapiens, UniProt P11586); test: MTHFD1 inhibition assay (NAD(P)H-Glo luminescence); settings: MTHFD1 IC50, recombinant human enzyme 200 nM, NADP, band
T1 sequence (P11586 2-291 limits assumed): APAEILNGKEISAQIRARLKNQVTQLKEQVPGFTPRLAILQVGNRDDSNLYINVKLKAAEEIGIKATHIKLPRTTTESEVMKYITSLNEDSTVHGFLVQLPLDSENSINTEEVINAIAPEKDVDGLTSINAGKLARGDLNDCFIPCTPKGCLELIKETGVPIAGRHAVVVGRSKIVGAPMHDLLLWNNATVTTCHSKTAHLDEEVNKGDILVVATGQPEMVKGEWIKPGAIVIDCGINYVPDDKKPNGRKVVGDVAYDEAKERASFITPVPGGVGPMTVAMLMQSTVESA

[2] = target: T2, MTHFD2 recombinant human enzyme (Homo sapiens, UniProt P13995); test: MTHFD2 inhibition assay (NAD(P)H-Glo luminescence); settings: for MTHFD1/MTHFD2 IC50 ratio: selectivity of MTHFD2 inhibition over MTHFD1, band
T2 sequence (P13995 36-350): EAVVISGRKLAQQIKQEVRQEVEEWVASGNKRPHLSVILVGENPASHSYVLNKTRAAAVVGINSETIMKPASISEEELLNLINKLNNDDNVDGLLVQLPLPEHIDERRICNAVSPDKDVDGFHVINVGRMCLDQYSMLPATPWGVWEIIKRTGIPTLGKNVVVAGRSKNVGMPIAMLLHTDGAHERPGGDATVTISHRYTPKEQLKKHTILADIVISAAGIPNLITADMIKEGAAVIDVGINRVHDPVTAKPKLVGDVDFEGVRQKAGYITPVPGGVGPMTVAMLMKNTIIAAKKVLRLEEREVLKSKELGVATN

| SMILES | IC50 [1] | IC50 [2] | MTHFD1/MTHFD2 IC50 ratio [2] |
| --- | --- | --- | --- |
| COC[C@H]1CN(c2cc(C)c3c4c(c(=O)oc3c2C)CN(C(=O)c2ccc(C(=O)NS(=O)(=O)C3(C)CC3)c(N3CCC(F)(F)C3)c2)CC4)CCN1C [Example 81, (R)-2-(3,3-difluoropyrrolidin-1-yl)-4-(8-(3-(methoxymethyl)-4-methylpiperazin-1-yl)-7,10-dimethyl-5-oxo-1,3,4,5-tetrahydro-2H-chromeno[3,4-c]pyridine-3-carbonyl)-N-((1-methylcyclopropyl)sulfonyl)benzamide] | 0.01 to 0.1 µM | 0.001 to 0.01 µM |  |
| COC[C@H]1CN(c2ccc3c4c(c(=O)oc3c2C)CN(C(=O)c2cc(OC3CCCC3)c(C(=O)NS(=O)(=O)N3CCCC3)c(C(F)(F)F)c2)CC4)CCN1C [Example 107, (R)-2-(cyclopentyloxy)-4-(8-(3-(methoxymethyl)-4-methylpiperazin-1-yl)-7-methyl-5-oxo-1,3,4,5-tetrahydro-2H-chromeno[3,4-c]pyridine-3-carbonyl)-N-(pyrrolidin-1-ylsulfonyl)-6-(trifluoromethyl)benzamide] | 1 to 5 µM | 0.1 to 1 µM | G (^ 3 to 9.0) |
| COC[C@H]1CN(c2cc(C)c3c4c(c(=O)oc3c2C)CN(C(=O)c2ccc(C(=O)NS(=O)(=O)C3(C)CC3)c(N(C)C3CCC3)c2F)CC4)CCN1C [Example 38, (R)-2-(cyclobutyl(methyl)amino)-3-fluoro-4-(8-(3-(methoxymethyl)-4-methylpiperazin-1-yl)-7,10-dimethyl-5-oxo-1,3,4,5-tetrahydro-2H-chromeno[3,4-c]pyridine-3-carbonyl)-N-((1-methylcyclopropyl)sulfonyl)benzamide] | 0.01 to 0.1 µM | 0.001 to 0.01 µM | G (^ 3 to 9.0) |
| COC[C@H]1CN(c2cc(C)c3c4c(c(=O)oc3c2C)CN(C(=O)c2ccc(C(=O)NS(=O)(=O)N(C)C)c(N3CCCC3)c2F)CC4)CCN1C [Example 70, (R)-N-(N,N-dimethylsulfamoyl)-3-fluoro-4-(8-(3-(methoxymethyl)-4-methylpiperazin-1-yl)-7,10-dimethyl-5-oxo-1,3,4,5-tetrahydro-2H-chromeno[3,4-c]pyridine-3-carbonyl)-2-(pyrrolidin-1-yl)benzamide] | 0.01 to 0.1 µM | 0.001 to 0.01 µM | G (^ 3 to 9.0) |
| COC[C@H]1CN(c2cc(C)c3c4c(c(=O)oc3c2C)CN(C(=O)c2ccc(C(=O)NS(=O)(=O)N(C)C)c(N3CCC(C)(C)C3)c2)CC4)CCN1C [Example 88, (R)-2-(3,3-dimethylpyrrolidin-1-yl)-N-(N,N-dimethylsulfamoyl)-4-(8-(3-(methoxymethyl)-4-methylpiperazin-1-yl)-7,10-dimethyl-5-oxo-1,3,4,5-tetrahydro-2H-chromeno[3,4-c]pyridine-3-carbonyl)benzamide] | 0.001 to 0.01 µM | 0.001 to 0.01 µM | F (<3) |
| COC[C@H]1CN(c2ccc3c4c(c(=O)oc3c2C)CN(C(=O)c2ccc(C(=O)NS(=O)(=O)N3CCCC3)c(OC3C[C@@H]5C[C@@H]5C3)c2)CC4)CCN1C (mixture of isomers) [Example 114, 2-(bicyclo[3.1.0]hexan-3-yloxy)-4-(8-((R)-3-(methoxymethyl)-4-methylpiperazin-1-yl)-7-methyl-5-oxo-1,3,4,5-tetrahydro-2H-chromeno[3,4-c]pyridine-3-carbonyl)-N-(pyrrolidin-1-ylsulfonyl)benzamide] | 0.01 to 0.1 µM | 0.1 to 1 µM | F (<3) |
| COC[C@H]1CN(c2cc(C)c3c4c(c(=O)oc3c2C)CN(C(=O)c2ccc(C(=O)NS(=O)(=O)N3CCCC3)c(OC3C5CC6CC(C5)CC3C6)c2F)CC4)CCN1C (stereo partly drawn) [Example 94, 2-((adamantan-2-yl)oxy)-3-fluoro-4-(8-((R)-3-(methoxymethyl)-4-methylpiperazin-1-yl)-7,10-dimethyl-5-oxo-1,3,4,5-tetrahydro-2H-chromeno[3,4-c]pyridine-3-carbonyl)-N-(pyrrolidin-1-ylsulfonyl)benzamide] | 0.01 to 0.1 µM | 0.01 to 0.1 µM | F (<3) |
| COC[C@H]1CN(c2cc(C)c3c4c(c(=O)oc3c2C)CN(C(=O)c2ccc(C(=O)NS(=O)(=O)N(C)C)c(OC3C5CC6CC(C5)CC3C6)c2F)CC4)CCN1C (stereo partly drawn) [Example 90, 2-((adamantan-2-yl)oxy)-N-(N,N-dimethylsulfamoyl)-3-fluoro-4-(8-((R)-3-(methoxymethyl)-4-methylpiperazin-1-yl)-7,10-dimethyl-5-oxo-1,3,4,5-tetrahydro-2H-chromeno[3,4-c]pyridine-3-carbonyl)benzamide] | 0.01 to 0.1 µM | 0.01 to 0.1 µM |  |
| COC[C@H]1CN(c2cc(C)c3c4c(c(=O)oc3c2C)CN(C(=O)c2cc(OC3CCCC3)c(C(=O)NS(=O)(=O)N(C)C)cc2F)CC4)CCN1C [Example 110, (R)-2-(cyclopentyloxy)-N-(N,N-dimethylsulfamoyl)-5-fluoro-4-(8-(3-(methoxymethyl)-4-methylpiperazin-1-yl)-7,10-dimethyl-5-oxo-1,3,4,5-tetrahydro-2H-chromeno[3,4-c]pyridine-3-carbonyl)benzamide] | 0.01 to 0.1 µM | 0.01 to 0.1 µM | F (<3) |

Continued, values first:

| IC50 [1] | IC50 [2] | MTHFD1/MTHFD2 IC50 ratio [2] | SMILES |
| --- | --- | --- | --- |
| 0.1 to 1 µM | 0.01 to 0.1 µM | H (>9.0 to 30) | COC[C@H]1CN(c2cc(Cl)c3c4c(c(=O)oc3c2C)CN(C(=O)c2cc(N(C)C)c(C(=O)NS(=O)(=O)N3CCCC5(COC5)C3)cc2F)CC4)CCN1C [Example 272, (R)-N-((2-oxa-6-azaspiro[3.5]nonan-6-yl)sulfonyl)-4-(10-chloro-8-(3-(methoxymethyl)-4-methylpiperazin-1-yl)-7-methyl-5-oxo-1,3,4,5-tetrahydro-2H-chromeno[3,4-c]pyridine-3-carbonyl)-2-(dimethylamino)-5-fluorobenzamide] |
| 0.1 to 1 µM | 0.01 to 0.1 µM | G (^ 3 to 9.0) | COC[C@H]1CN(c2ccc3c4c(c(=O)oc3c2C)CN(C(=O)c2cc(N3CCC3)c(C(=O)NS(=O)(=O)N3CC5CC5C3)cc2F)CC4)CCN1C (stereo partly drawn) [Example 203, N-((3-azabicyclo[3.1.0]hexan-3-yl)sulfonyl)-2-(azetidin-1-yl)-5-fluoro-4-(8-((R)-3-(methoxymethyl)-4-methylpiperazin-1-yl)-7-methyl-5-oxo-1,3,4,5-tetrahydro-2H-chromeno[3,4-c]pyridine-3-carbonyl)benzamide] |
| 0.01 to 0.1 µM | 0.01 to 0.1 µM | F (<3) | CCOc1c(C(=O)NS(=O)(=O)N2CC3(CCC3)C2)ccc(C(=O)N2CCc3c(c(=O)oc4c(C)c(N5CCN(C)[C@@H](COC)C5)cc(C)c34)C2)c1F [Example 233] |
| 0.1 to 1 µM | 0.01 to 0.1 µM | H (>9.0 to 30) | COC[C@H]1CN(c2cc(Cl)c3c4c(c(=O)oc3c2C)CN(C(=O)c2ccc(C(=O)NS(=O)(=O)N3CC5(CCC5)C3)c(OC)c2)CC4)CCN1C [Example 279, (R)-N-((2-azaspiro[3.3]heptan-2-yl)sulfonyl)-4-(10-chloro-8-(3-(methoxymethyl)-4-methylpiperazin-1-yl)-7-methyl-5-oxo-1,3,4,5-tetrahydro-2H-chromeno[3,4-c]pyridine-3-carbonyl)-2-methoxybenzamide] |
| 1 to 5 µM | 0.01 to 0.1 µM | J (>30) | COC[C@H]1CN(c2cc(C)c3c4c(c(=O)oc3c2C)CN(C(=O)c2cc(OC(C)C)c(C(=O)NS(=O)(=O)N3CCCC3)c(C(F)(F)F)c2)CC4)CCN1C [Example 161, (R)-2-isopropoxy-4-(8-(3-(methoxymethyl)-4-methylpiperazin-1-yl)-7,10-dimethyl-5-oxo-1,3,4,5-tetrahydro-2H-chromeno[3,4-c]pyridine-3-carbonyl)-N-(pyrrolidin-1-ylsulfonyl)-6-(trifluoromethyl)benzamide] |
| 0.1 to 1 µM | 0.01 to 0.1 µM | H (>9.0 to 30) | COC[C@H]1CN(c2cc(Cl)c3c4c(c(=O)oc3c2C)CN(C(=O)c2cc(N(C)C)c(C(=O)NS(=O)(=O)N3CC[C@H](OC)C3)cc2F)CC4)CCN1C [Example 284, 4-(10-chloro-8-((R)-3-(methoxymethyl)-4-methylpiperazin-1-yl)-7-methyl-5-oxo-1,3,4,5-tetrahydro-2H-chromeno[3,4-c]pyridine-3-carbonyl)-2-(dimethylamino)-5-fluoro-N-(((S)-3-methoxypyrrolidin-1-yl)sulfonyl)benzamide] |
| 0.1 to 1 µM | 0.01 to 0.1 µM | J (>30) | COC[C@H]1CN(c2cc(C)c3c4c(c(=O)oc3c2C)CN(C(=O)c2cc(N(C)C)c(C(=O)NS(=O)(=O)N3CCC[C@@H](OC)C3)cc2F)CC4)CCN1C [Example 286, 2-(dimethylamino)-5-fluoro-4-(8-((R)-3-(methoxymethyl)-4-methylpiperazin-1-yl)-7,10-dimethyl-5-oxo-1,3,4,5-tetrahydro-2H-chromeno[3,4-c]pyridine-3-carbonyl)-N-(((R)-3-methoxypiperidin-1-yl)sulfonyl)benzamide] |
| 0.1 to 1 µM | 0.01 to 0.1 µM | H (>9.0 to 30) | COC[C@H]1CN(c2cc(C)c3c4c(c(=O)oc3c2C)CN(C(=O)c2ccc(C(=O)NS(=O)(=O)N3CCC(F)CC3)c(OC)c2F)CC4)CCN1C [Example 240] |
